Assay results as given in patent publication US4297353A, “Non-irritating injectable dosage forms” (priority 1980, dated 1981).
Read-outs that look alike come from different tables or passages of the source.

Legend:
[1] = system: muscles of rabbits (sacrospinales group); details: rabbit, in vivo
[2] = system: muscles of rabbits (sacrospinales group); assay: Intramuscular tissue irritation in rabbits, microscopic observations (Example 2)

| SMILES | evidence of connective tissue irritation [1] | evidence of suppuration in the inflammatory zone ([2]; Day 4 post-injection, regardless of concentration) | evidence of connective tissue irritation ([2]; Day 7 and Day 14) |
| --- | --- | --- | --- |
| CN(C)CCCN1c2ccccc2Sc2ccc(Cl)cc21 [chloropromazine, Chlorpromazine] | became apparent by Day 7 and more frequent and extreme in its occurrence by Day 14 | – | – |
| CSc1ccc2c(c1)N(CCC1CCCCN1C)c1ccccc1S2 (stereo not drawn) [Mellaril base, thioridazine] | – | high-frequency evidence of suppuration | became apparent by Day 7 and more frequent and extreme in its occurrence by Day 14 |
